# From US20250296959A1, “B7-H3 TARGETING PEPTIDES AND CONSTRUCTS THEREOF” (Mariana Oncology Inc., priority 2024, published 2025)
# Starred links: 1 amine or outer side, 2 acyl side, 3 side chain; linkers in the order of their positions; H or OH if unused. Positions of bridges follow the written chain, without caps; N, C: chain ends. Non-standard residues stand in square brackets, D forms with d. Residues, ends and D or L forms follow the SMILES beside them. Groups on a side chain read outwards from the residue. *: point of attachment. Ala(1-CH2CO2H-4-piperidyl) = N[C@@H](CC1CCN(CC(=O)O)CC1)C(=O)O; Ala(piperidin-4-yl) = O=C([C@H](CC1CCN([*:3])CC1)N[*:1])[*:2]; DOTA = O=C(O)CN1CCN(CC(=O)O)CCN(CC(=O)*)CCN(CC(=O)O)CC1; Phe(4-NHCONH2) = NC(=O)Nc1ccc(C[C@H](N)C(=O)O)cc1; Trp(5-F) = N[C@@H](Cc1c[nH]c2ccc(F)cc12)C(=O)O; X1 = C[C@@H](c1ccccc1)[C@H](N[*:1])C(=O)[*:2]; Lys(Me3) = C[N+](C)(C)CCCC[C@H](N)C(=O)O; Ala(4-THP) = N[C@@H](CC1CCOCC1)C(=O)O; Phe(2-F) = N[C@@H](Cc1ccccc1F)C(=O)O; Val(3-OH) = CC(C)(O)[C@H](N)C(=O)O; cisHyp = O=C(O)[C@@H]1C[C@H](O)CN1; 4Pal = N[C@@H](Cc1ccncc1)C(=O)O; PEG4 = NCCOCCOCCOCCOCCC(=O)O; Suc = O=C(CCC(=O)[*:2])[*:1]; Tle = CC(C)(C)[C@H](N)C(=O)O; hLeu = CC(C)CC[C@H](N)C(=O)O; NMeS = CN[C@@H](CO)C(=O)O; Nle = CCCC[C@H](N)C(=O)O
# Molecular target: T1, human 4lg B7-H3 (Homo sapiens, UniProt Q5ZPR3)
# T1 sequence (Q5ZPR3 29-534): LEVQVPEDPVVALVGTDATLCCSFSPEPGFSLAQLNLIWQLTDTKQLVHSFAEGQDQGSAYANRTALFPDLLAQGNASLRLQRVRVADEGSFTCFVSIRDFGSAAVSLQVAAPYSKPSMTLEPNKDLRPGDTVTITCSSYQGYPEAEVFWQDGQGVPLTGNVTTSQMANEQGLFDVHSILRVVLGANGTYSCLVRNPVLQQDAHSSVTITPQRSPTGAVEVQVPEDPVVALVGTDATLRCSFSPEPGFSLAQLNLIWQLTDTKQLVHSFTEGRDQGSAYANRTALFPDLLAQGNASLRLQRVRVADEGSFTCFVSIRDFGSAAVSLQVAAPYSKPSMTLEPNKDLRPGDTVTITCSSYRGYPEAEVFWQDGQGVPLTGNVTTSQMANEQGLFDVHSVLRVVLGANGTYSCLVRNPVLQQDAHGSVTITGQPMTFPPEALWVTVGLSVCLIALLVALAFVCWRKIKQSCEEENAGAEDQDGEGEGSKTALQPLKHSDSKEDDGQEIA
# Test: Affinity determination by surface plasmon resonance (SPR) to 4Ig B7-H3
# Conditions: SPR KD—25° C., 4Ig B7-H3; 25° C. flow cell temperature
row,Kd [nM],SMILES
1,10 to 100,"CC(=O)N[C@@H](CCC(C)C)C(=O)N[C@H](C(=O)N[C@H]1CSSC[C@@H](C(=O)N[C@@H](Cc2c[nH]c3ccc(F)cc23)C(=O)N[C@@H](Cc2ccccc2)C(=O)N(C)[C@@H](CO)C(=O)N[C@H](CCCCNC(=O)CN2CCN(CC(=O)O)CCN(CC(=O)O)CCN(CC(=O)O)CC2)C(N)=O)NC(=O)[C@H](Cc2ccc(O)cc2)NC(=O)[C@H](C(C)C)NC(=O)[C@H](CC(=O)O)NC(=O)[C@H](Cc2ccc(O)cc2)NC(=O)[C@H](CC2CCNCC2)NC(=O)CNC(=O)[C@H](C(C)C)NC1=O)C(C)(C)O [compound 211, Ac-hLeu-hyVal-C-V-G-PipAla-Y-D-V-Y-C-5FW-F-NMeSer-dLys(DOTA)-CONH2] (Ac-[hLeu][Val(3-OH)]CVG[Ala(piperidin-4-yl)]YDVYC[Trp(5-F)]F[NMeS][dK](DOTA)-NH2; disulfide 3-11)"
2,1 to 10,"CCCC[C@H](NC(C)=O)C(=O)N[C@@H](Cc1ccc(O)cc1)C(=O)N[C@H]1CSSC[C@@H](C(=O)N[C@@H](Cc2c[nH]c3ccccc23)C(=O)N[C@@H](Cc2ccccc2)C(=O)N[C@@H](CO)C(=O)N[C@H](CCCCNC(=O)CN2CCN(CC(=O)O)CCN(CC(=O)O)CCN(CC(=O)O)CC2)C(N)=O)NC(=O)[C@H](Cc2ccc(O)cc2)NC(=O)[C@H](C(C)C)NC(=O)[C@H](CC(=O)O)NC(=O)[C@H](Cc2ccc(O)cc2)NC(=O)[C@H](CCCCN)NC(=O)CNC(=O)[C@H](C(C)C)NC1=O [compound 92, Ac-Nle-Y-C-V-G-K-Y-D-V-Y-C-W-F-Ser-dLys(DOTA)-CONH2] (Ac-[Nle]YCVGKYDVYCWFS[dK](DOTA)-NH2; disulfide 3-11)"
3,< 1,"CC(=O)N[C@@H](CCC(C)C)C(=O)N[C@@H](Cc1ccc(O)cc1)C(=O)N[C@H]1CSSC[C@@H](C(=O)N[C@@H](Cc2c[nH]c3ccccc23)C(=O)N[C@@H](Cc2ccccc2)C(=O)N[C@H](C(=O)N[C@H](CCCCNC(=O)CN2CCN(CC(=O)O)CCN(CC(=O)O)CCN(CC(=O)O)CC2)C(N)=O)C(C)(C)O)NC(=O)[C@H](Cc2ccc(O)cc2)NC(=O)[C@H](C(C)C)NC(=O)[C@H](CC(=O)O)NC(=O)[C@H](Cc2ccc(O)cc2)NC(=O)[C@H](CCCCN)NC(=O)CNC(=O)[C@H](C(C)C)NC1=O [compound 149, Ac-hLeu-Y-C-V-G-K-Y-D-V-Y-C-W-F-hydroxyVal-dLys(DOTA)-CONH2] (Ac-[hLeu]YCVGKYDVYCWF[Val(3-OH)][dK](DOTA)-NH2; disulfide 3-11)"
4,1 to 10,"CC[C@H](C)[C@@H]1NC(=O)[C@@H](NC(=O)[C@H](Cc2ccc(O)cc2)NC(=O)[C@H](CCC(C)C)NC(C)=O)CSSC[C@@H](C(=O)N[C@@H](Cc2c[nH]c3ccc(F)cc23)C(=O)N[C@@H](Cc2ccccc2)C(=O)N2C[C@@H](O)C[C@H]2C(N)=O)NC(=O)[C@H](Cc2ccc(O)cc2)NC(=O)[C@H](C(C)C)NC(=O)[C@H](CC(=O)O)NC(=O)[C@H](Cc2ccncc2)NC(=O)[C@H](CCCCNC(=O)CN2CCN(CC(=O)O)CCN(CC(=O)O)CCN(CC(=O)O)CC2)NC(=O)CNC1=O [compound 251, Ac-hLeu-Y-C-Ile-G-Lys(DOTA)-4PyA-D-V-Y-C-5FW-F-(cisHyp)-CONH2] (Ac-[hLeu]YCIGK(DOTA)[4Pal]DVYC[Trp(5-F)]F[cisHyp]-NH2; disulfide 3-11)"

# Same assay, conditions: SPR KD—37° C., 4Ig B7-H3; 37° C. flow cell temperature
row,SMILES,Kd [nM]
1,"CC(=O)N[C@@H](CCC(C)C)C(=O)N[C@@H](Cc1ccc(O)cc1)C(=O)N[C@H]1CSSC[C@@H](C(=O)N[C@@H](Cc2c[nH]c3ccc(F)cc23)C(=O)N[C@@H](Cc2ccccc2)C(=O)N[C@H](C(=O)N[C@H](CCCCN)C(N)=O)C(C)(C)O)NC(=O)[C@H](Cc2ccc(O)cc2)NC(=O)[C@H](C(C)C)NC(=O)[C@H](CC(=O)O)NC(=O)[C@H](CC2CCOCC2)NC(=O)[C@H](CCCCNC(=O)CN2CCN(CC(=O)O)CCN(CC(=O)O)CCN(CC(=O)O)CC2)NC(=O)CNC(=O)[C@H](C(C)(C)C)NC1=O [compound 337, Ac-hLeu-Y-C-Tbg-G-Lys(DOTA)-ThpA-D-V-Y-C-5FW-F-hydroxyVal-dLys-CONH2] (Ac-[hLeu]YC[Tle]GK(DOTA)[Ala(4-THP)]DVYC[Trp(5-F)]F[Val(3-OH)][dK]-NH2; disulfide 3-11)",1 to 10
2,"CC(=O)N[C@@H](CCC(C)C)C(=O)N[C@@H](Cc1ccc(O)cc1)C(=O)N[C@H]1CSSC[C@@H](C(=O)N[C@@H](Cc2c[nH]c3ccc(F)cc23)C(=O)N[C@@H](Cc2ccccc2)C(=O)N[C@H](C(=O)N[C@H](CCCCNC(=O)CN2CCN(CC(=O)O)CCN(CC(=O)O)CCN(CC(=O)O)CC2)C(=O)O)C(C)(C)O)NC(=O)[C@H](Cc2ccc(O)cc2)NC(=O)[C@H](C(C)C)NC(=O)[C@H](CC(=O)O)NC(=O)[C@H](CC2CCOCC2)NC(=O)[C@H](CCCCN)NC(=O)CNC(=O)[C@H]([C@@H](C)O)NC1=O [compound 370, Ac-hLeu-Y-C-Thr-G-K-ThpA-D-V-Y-C-5FW-F-hydroxyVal-dLys(DOTA)-COOH] (Ac-[hLeu]YCTGK[Ala(4-THP)]DVYC[Trp(5-F)]F[Val(3-OH)][dK](DOTA)-OH; disulfide 3-11)",1 to 10
3,"CC(=O)N[C@@H](CCC(C)C)C(=O)N[C@@H](Cc1ccc(O)cc1)C(=O)N[C@H]1CSSC[C@@H](C(=O)N[C@@H](Cc2c[nH]c3ccc(F)cc23)C(=O)N[C@@H](Cc2ccccc2)C(=O)N[C@H](C(=O)N[C@H](CCC(=O)O)C(N)=O)C(C)(C)O)NC(=O)[C@H](Cc2ccc(O)cc2)NC(=O)[C@H](C(C)C)NC(=O)[C@H](CC(=O)O)NC(=O)[C@H](CC2CCN(CC(=O)O)CC2)NC(=O)[C@H](CCCCNC(=O)CN2CCN(CC(=O)O)CCN(CC(=O)O)CCN(CC(=O)O)CC2)NC(=O)CNC(=O)[C@H](C(C)(C)C)NC1=O [compound 421, Ac-hLeu-Y-C-Tbg-G-Lys(DOTA)-Pip(CH2COOH)Ala-D-V-Y-C-5FW-F-hydroxyVal-dGlu-CONH2] (Ac-[hLeu]YC[Tle]GK(DOTA)[Ala(1-CH2CO2H-4-piperidyl)]DVYC[Trp(5-F)]F[Val(3-OH)][dE]-NH2; disulfide 3-11)",1 to 10

# The remaining lines, values ahead:
row,Kd [nM],SMILES
1,< 1,"CC(=O)N[C@@H](CCC(C)C)C(=O)N[C@@H](Cc1ccc(O)cc1)C(=O)N[C@H]1CSSC[C@@H](C(=O)N[C@@H](Cc2c[nH]c3ccc(F)cc23)C(=O)N[C@@H](Cc2ccccc2F)C(=O)N[C@H](C(=O)N[C@H](CCCCNC(=O)CN2CCN(CC(=O)O)CCN(CC(=O)O)CCN(CC(=O)O)CC2)C(=O)O)C(C)(C)O)NC(=O)[C@H](Cc2ccc(O)cc2)NC(=O)[C@H](C(C)C)NC(=O)[C@H](CC(=O)O)NC(=O)[C@H](CC2CCOCC2)NC(=O)[C@H](CC2CCNCC2)NC(=O)CNC(=O)[C@H](C(C)(C)C)NC1=O [compound 470, Ac-hLeu-Y-C-Tbg-G-PipAla-ThpA-D-V-Y-C-5FW-2FPhe-hydroxyVal-dLys(DOTA)-COOH] (Ac-[hLeu]YC[Tle]G[Ala(piperidin-4-yl)][Ala(4-THP)]DVYC[Trp(5-F)][Phe(2-F)][Val(3-OH)][dK](DOTA)-OH; disulfide 3-11)"
2,1 to 10,"CC(C)CC[C@H](NC(=O)CCC(=O)O)C(=O)N[C@@H](Cc1ccc(O)cc1)C(=O)N[C@H]1CSSC[C@@H](C(=O)N[C@@H](Cc2c[nH]c3ccc(F)cc23)C(=O)N[C@@H](Cc2ccccc2)C(=O)N[C@H](C(=O)N[C@H](CCCCNC(=O)CN2CCN(CC(=O)O)CCN(CC(=O)O)CCN(CC(=O)O)CC2)C(=O)O)C(C)(C)O)NC(=O)[C@H](Cc2ccc(O)cc2)NC(=O)[C@H](C(C)C)NC(=O)[C@H](CC(=O)O)NC(=O)[C@H](CC2CCOCC2)NC(=O)[C@H](CC2CCNCC2)NC(=O)CNC(=O)[C@H](C(C)(C)C)NC1=O [compound 451, C4diacid-hLeu-Y-C-Tbg-G-PipAla-ThpA-D-V-Y-C-5FW-F-hydroxyVal-dLys(DOTA)-COOH] (Suc-[hLeu]YC[Tle]G[Ala(piperidin-4-yl)][Ala(4-THP)]DVYC[Trp(5-F)]F[Val(3-OH)][dK](DOTA)-OH; disulfide 3-11)"
3,< 1,"CC(=O)N[C@@H](CCC(C)C)C(=O)N[C@@H](Cc1ccc(O)cc1)C(=O)N[C@H]1CSSC[C@@H](C(=O)N[C@@H](Cc2c[nH]c3ccc(F)cc23)C(=O)N[C@H](C(=O)N[C@H](C(=O)N[C@H](C)C(=O)O)C(C)(C)O)[C@@H](C)c2ccccc2)NC(=O)[C@H](Cc2ccc(O)cc2)NC(=O)[C@H](C(C)C)NC(=O)[C@H](CC(=O)O)NC(=O)[C@H](CC2CCN(C(=O)CCOCCOCCOCCOCCNC(=O)CN3CCN(CC(=O)O)CCN(CC(=O)O)CCN(CC(=O)O)CC3)CC2)NC(=O)[C@H](CCCC[N+](C)(C)C)NC(=O)CNC(=O)[C@H](C(C)(C)C)NC1=O [compound 522, Ac-hLeu-Y-C-Tbg-G-Lys(Me)3-Pip(PEG4-DOTA)Ala-D-V-Y-C-5FW-[(2S, 3S)beta-Me-Phe]-hydroxyVal-dAla-COOH] (Ac-[hLeu]YC[Tle]G[Lys(Me3)][Ala(piperidin-4-yl)]([PEG4-DOTA])DVYC[Trp(5-F)][X1][Val(3-OH)][dA]-OH; disulfide 3-11)"
4,< 1,"CC(=O)N[C@@H](CCC(C)C)C(=O)N[C@@H](Cc1ccc(O)cc1)C(=O)N[C@H]1CSSC[C@@H](C(=O)N[C@@H](Cc2c[nH]c3ccc(F)cc23)C(=O)N[C@H](C(=O)N[C@H](C(=O)N[C@H](CCCCNC(=O)CCOCCOCCOCCOCCNC(=O)CN2CCN(CC(=O)O)CCN(CC(=O)O)CCN(CC(=O)O)CC2)C(=O)O)C(C)(C)O)[C@@H](C)c2ccccc2)NC(=O)[C@H](Cc2ccc(NC(N)=O)cc2)NC(=O)[C@H](C(C)C)NC(=O)[C@H](CC(=O)O)NC(=O)[C@H](CC2CCOCC2)NC(=O)[C@H](CC2CCNCC2)NC(=O)CNC(=O)[C@H](C(C)(C)C)NC1=O [compound 500, Ac-hLeu-Y-C-Tbg-G-PipAla-ThpA-D-V-Aph(Cbm)-C-5FW-[(2S, 3S)beta-Me-Phe]-hydroxyVal-dLys(PEG4-DOTA)-COOH] (Ac-[hLeu]YC[Tle]G[Ala(piperidin-4-yl)][Ala(4-THP)]DV[Phe(4-NHCONH2)]C[Trp(5-F)][X1][Val(3-OH)][dK]([PEG4-DOTA])-OH; disulfide 3-11)"
